Laboratory results as given in article PMC7704495 (Pharmacological Reports, 2020).

Legend:
CYP2D6 [1] = target: T1, CYP2D6 (Homo sapiens, UniProt P10635); experiment: CYP2D6 inhibition, bufuralol 1′-hydroxylation in pooled human liver microsomes; assay type: in vitro ADME; set-up: a Human liver microsomes; tissue Corning (Woburn, USA); host or cells: pooled human liver microsomes; details: for type of inhibition: Lineweaver–Burk; for Ki: bufuralol 1′-hydroxylation
Procedure: (§1) The following probe reactions were applied, according to the methods previously described: caffeine 3-N-demethylation for CYP1A2 (caffeine 200, 400 and 800 µM), diclofenac 4′-hydroxylation for CYP2C9 (diclofenac 5, 10, 25 µM), perazine N-demethylation for CYP2C19 (perazine 50, 100, 200 µM), bufuralol 1′-hydroxylation for CYP2D6 (bufuralol 10, 25, 50 µM), and testosterone 6β-hydroxylation for CYP3A4 (50, 100 and 200 µM). Incubation systems for CYP2C9, 2C19 and 3A4 contained: 50 mM TRIS/KCL buffer (pH = 7.4), NADPH generating system (1 mM NADP, 5 mM glucose 6-phosphate, 1.7 U/ml glucose 6-phosphate dehydrogenase, 1 mM EDTA and 3 mM MgCl2). Incubation mixture for CYP1A2 included: 0.15 M phosphate buffer (pH = 7.4) and 1 mM NADPH, and for CYP2D6: 0.1 M TRIS/KCL buffer (pH = 7.4), NADPH generating system (1.3 mM NADP, 3.3 mM glucose 6-phosphate, 1 U/ml glucose 6-phosphate dehydrogenase and 3.3 mM MgCl2). The appropriate concentrations of human liver microsomes (0.5 mg/ml for each reaction) or supersomes (50 pmol CYP/ml), various concentrations of a probe substrate in the absence or presence of neuroleptic (concentrations: 0.1, 0.5, 1, 5, 10 µM) were added, The final volume of the reaction mixture was 0.5 ml. The incubation time for supersomes was 30 min (for each reaction) and for liver microsomes: 30 min (diclofenac 4′-hydroxylation and bufuralol 1′-hydroxylation), 20 min (perazine N-demethylation and testosterone 6β-hydroxylation) or 50 min (caffeine 3-N-demethylation). After the reactions had been stopped, the concentrations of specific substrates and their metabolites formed in liver microsomes or supersomes were assessed by the HPLC method with UV detection (or fluorimetric detection for CYP2D6), as described previously.
(§2) Kinetic parameters (Km, Vmax, Ki) describing the course of CYP-specific reactions in liver microsomes or supersomes were obtained using the Michaelis–Menten approach and a non-linear regression analysis (Program Sigma Plot 12.3 Enzyme Kinetics).

CYP2C19 [2] = target: T2, CYP2C19 (Homo sapiens, UniProt P33261); experiment: CYP2C19 inhibition, perazine N-demethylation in pooled human liver microsomes; assay type: in vitro ADME; set-up: a Human liver microsomes; tissue Corning (Woburn, USA); host or cells: pooled human liver microsomes; details: for type of inhibition: Lineweaver–Burk; for Ki: perazine N-demethylation
T2 sequence (P33261 whole entry): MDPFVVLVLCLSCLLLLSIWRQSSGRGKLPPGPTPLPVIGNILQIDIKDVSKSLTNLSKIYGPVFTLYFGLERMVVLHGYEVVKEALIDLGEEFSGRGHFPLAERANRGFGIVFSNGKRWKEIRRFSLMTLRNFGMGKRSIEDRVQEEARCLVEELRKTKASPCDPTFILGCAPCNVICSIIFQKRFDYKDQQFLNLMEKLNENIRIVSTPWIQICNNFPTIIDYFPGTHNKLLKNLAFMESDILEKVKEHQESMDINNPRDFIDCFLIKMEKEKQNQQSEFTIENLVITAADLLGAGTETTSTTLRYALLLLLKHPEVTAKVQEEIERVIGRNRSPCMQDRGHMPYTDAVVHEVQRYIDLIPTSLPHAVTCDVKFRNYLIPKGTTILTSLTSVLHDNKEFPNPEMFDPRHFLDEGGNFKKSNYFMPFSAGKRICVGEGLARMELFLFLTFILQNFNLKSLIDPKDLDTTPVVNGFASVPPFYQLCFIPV
Procedure: as §1, §2

CYP3A4 [3] = target: T3, CYP3A4 (Homo sapiens, UniProt P08684); experiment: CYP3A4 inhibition, testosterone 6β-hydroxylation in cDNA-expressed CYP3A4 (supersomes)
T3 sequence (P08684 whole entry): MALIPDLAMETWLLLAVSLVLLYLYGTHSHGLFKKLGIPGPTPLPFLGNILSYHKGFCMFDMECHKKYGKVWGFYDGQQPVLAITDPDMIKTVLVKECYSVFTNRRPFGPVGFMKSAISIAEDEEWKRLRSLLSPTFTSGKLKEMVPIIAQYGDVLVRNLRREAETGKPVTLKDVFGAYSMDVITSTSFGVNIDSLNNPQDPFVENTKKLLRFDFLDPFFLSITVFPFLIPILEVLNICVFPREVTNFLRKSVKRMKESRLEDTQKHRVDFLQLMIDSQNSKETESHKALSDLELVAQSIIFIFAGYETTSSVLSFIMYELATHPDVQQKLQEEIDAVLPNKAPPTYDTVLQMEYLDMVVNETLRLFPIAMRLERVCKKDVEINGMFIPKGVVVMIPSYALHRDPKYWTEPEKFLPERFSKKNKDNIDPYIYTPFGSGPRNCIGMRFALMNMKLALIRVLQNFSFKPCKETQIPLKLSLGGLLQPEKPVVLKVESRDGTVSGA
Procedure: as §1, §2

CYP2C9 [4] = target: T4, CYP2C9 (Homo sapiens, UniProt P11712); experiment: CYP2C9 inhibition, diclofenac 4′-hydroxylation in cDNA-expressed CYP2C9 (supersomes); assay type: in vitro ADME; details: for type of inhibition: Lineweaver–Burk
T4 construct: purchased Corning (Woburn, USA); host or cells: baculovirus-infected insect cells
T4 sequence (P11712 whole entry): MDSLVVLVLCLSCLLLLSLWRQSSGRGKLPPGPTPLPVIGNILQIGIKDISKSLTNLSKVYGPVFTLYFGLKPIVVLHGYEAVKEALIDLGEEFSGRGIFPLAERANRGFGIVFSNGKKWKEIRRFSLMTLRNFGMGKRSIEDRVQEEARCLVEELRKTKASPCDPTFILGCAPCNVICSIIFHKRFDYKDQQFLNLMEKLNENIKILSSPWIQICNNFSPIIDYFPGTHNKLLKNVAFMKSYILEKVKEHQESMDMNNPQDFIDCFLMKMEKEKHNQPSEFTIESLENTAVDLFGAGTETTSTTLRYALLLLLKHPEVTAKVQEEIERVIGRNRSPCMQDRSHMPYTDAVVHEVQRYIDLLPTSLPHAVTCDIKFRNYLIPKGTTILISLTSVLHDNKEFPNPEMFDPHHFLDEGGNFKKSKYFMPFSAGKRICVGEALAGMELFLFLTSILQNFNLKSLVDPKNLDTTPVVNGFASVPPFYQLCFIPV
Procedure: as §1, §2

[5] = lipophilicity; cited from earlier work
CYP1A2 [6] = target: T5, CYP1A2 (Homo sapiens, UniProt P05177); experiment: CYP1A2 inhibition, caffeine 3-N-demethylation in cDNA-expressed CYP1A2 (supersomes); assay type: in vitro ADME; details: for type of inhibition: Lineweaver–Burk; for Ki: caffeine 3-N-demethylation
T5 construct: purchased Corning (Woburn, USA); host or cells: baculovirus-infected insect cells
T5 sequence (P05177 1-516): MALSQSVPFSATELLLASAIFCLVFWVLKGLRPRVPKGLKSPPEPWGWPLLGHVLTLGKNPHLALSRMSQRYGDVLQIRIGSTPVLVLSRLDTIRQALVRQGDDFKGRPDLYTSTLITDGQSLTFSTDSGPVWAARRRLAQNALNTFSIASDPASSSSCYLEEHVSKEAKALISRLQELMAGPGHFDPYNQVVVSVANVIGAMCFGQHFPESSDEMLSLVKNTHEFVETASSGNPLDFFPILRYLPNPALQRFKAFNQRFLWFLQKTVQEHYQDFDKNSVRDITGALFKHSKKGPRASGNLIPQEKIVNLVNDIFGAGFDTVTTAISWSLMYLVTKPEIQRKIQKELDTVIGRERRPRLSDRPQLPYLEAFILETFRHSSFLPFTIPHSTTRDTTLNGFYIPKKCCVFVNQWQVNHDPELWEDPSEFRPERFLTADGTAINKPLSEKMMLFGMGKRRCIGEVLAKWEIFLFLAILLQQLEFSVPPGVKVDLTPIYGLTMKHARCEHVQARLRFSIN
Procedure: as §1, §2

CYP1A2 [7] = target: T5, CYP1A2; experiment: CYP1A2 inhibition, caffeine 3-N-demethylation in pooled human liver microsomes; assay type: in vitro ADME; details: for type of inhibition: Lineweaver–Burk; for Ki: caffeine 3-N-demethylation
Procedure: as §1, §2

CYP2C19 [8] = target: T2, CYP2C19; experiment: CYP2C19 inhibition, perazine N-demethylation in cDNA-expressed CYP2C19 (supersomes); assay type: in vitro ADME; details: for type of inhibition: Lineweaver–Burk; for Ki: perazine N-demethylation
Procedure: as §1, §2

[9] = patients; cited from earlier work
CYP2C9 [10] = target: T4, CYP2C9; experiment: CYP2C9 inhibition, diclofenac 4′-hydroxylation in pooled human liver microsomes; assay type: in vitro ADME; details: for type of inhibition: Lineweaver–Burk
Procedure: as §1, §2

CYP2D6 [11] = target: T1, CYP2D6; experiment: CYP2D6 inhibition, bufuralol 1′-hydroxylation in cDNA-expressed CYP2D6 (supersomes); assay type: in vitro ADME; details: for type of inhibition: Lineweaver–Burk; for Ki: bufuralol 1′-hydroxylation
Procedure: as §1, §2

CYP3A4 [12] = target: T3, CYP3A4; experiment: CYP3A4 inhibition, testosterone 6β-hydroxylation in pooled human liver microsomes
Procedure: as §1, §2

T1 sequence (P10635 whole entry): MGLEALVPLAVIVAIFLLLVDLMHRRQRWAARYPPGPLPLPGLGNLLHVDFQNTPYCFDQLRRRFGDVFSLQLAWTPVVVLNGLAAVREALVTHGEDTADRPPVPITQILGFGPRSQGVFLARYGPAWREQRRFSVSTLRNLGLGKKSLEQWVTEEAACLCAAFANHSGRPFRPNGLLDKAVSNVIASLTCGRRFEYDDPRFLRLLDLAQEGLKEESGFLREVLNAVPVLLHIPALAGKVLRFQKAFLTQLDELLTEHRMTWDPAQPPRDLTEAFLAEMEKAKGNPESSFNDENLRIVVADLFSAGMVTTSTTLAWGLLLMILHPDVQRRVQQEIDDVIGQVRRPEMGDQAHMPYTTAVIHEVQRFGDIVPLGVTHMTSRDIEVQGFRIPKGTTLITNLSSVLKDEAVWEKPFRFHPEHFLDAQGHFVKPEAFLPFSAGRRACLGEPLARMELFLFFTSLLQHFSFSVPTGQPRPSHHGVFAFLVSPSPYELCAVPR

## COc1cc(C(C)=O)ccc1OCCCN1CCC(c2noc3cc(F)ccc23)CC1 [Iloperidone, iloperidone]
CYP2D6 [1]
  type of inhibition: Competitive
  Ki: 2.9 µM
CYP2D6 [1]; listed as iloperidone
  type of inhibition: competitive
CYP2C19 [2]
  type of inhibition: Mixed
  Ki: 6.5 µM
CYP2C19 [2]; listed as iloperidone
  type of inhibition: mixed
CYP3A4 [3]
  type of inhibition: noncompetitive
CYP3A4 [3]; human, 30 min, pH 7.4
  type of inhibition: Noncompetitive
CYP2C9 [4]; human, pH 7.4, probe diclofenac (4′-hydroxylation), CYP2C9, supersomes, diclofenac 4′-hydroxylation
  Ki at 30 min: > 10 µM
CYP2C9 [4]; supersomes, neuroleptic 0.1-10 µM
  effect on the activity of CYP2C9: did not affect
[5]
  log P: 4.43
CYP1A2 [6]
  type of inhibition: Mixed
  Ki: 31 µM
CYP1A2 [6]; listed as iloperidone
  type of inhibition: mixed
CYP1A2 [7]
  type of inhibition: Mixed
  Ki: 45 µM
CYP1A2 [7]; listed as iloperidone
  type of inhibition: mixed
CYP2C19 [8]
  type of inhibition: Mixed
  Ki: 32 µM
CYP2C19 [8]; listed as iloperidone
  type of inhibition: mixed
[9]
  therapeutic plasma concentration: up to 0.2 μM
CYP2C9 [10]; human, pooled human liver microsomes, pH 7.4, probe diclofenac (4′-hydroxylation), CYP2C9, liver microsomes, diclofenac 4′-hydroxylation
  Ki at 30 min: > 10 µM
CYP2C9 [10]; liver microsomes, neuroleptic 0.1-10 µM
  effect on the activity of CYP2C9: did not affect
CYP2D6 [11]
  type of inhibition: Competitive
  Ki: 10 µM
CYP2D6 [11]; listed as iloperidone
  type of inhibition: competitive
CYP3A4 [12]
  type of inhibition: noncompetitive
CYP3A4 [12]; human, 20 min, pH 7.4
  type of inhibition: Noncompetitive

## O=C1[C@@H]2[C@H]3CC[C@H](C3)[C@@H]2C(=O)N1C[C@@H]1CCCC[C@H]1CN1CCN(c2nsc3ccccc23)CC1 [Lurasidone, lurasidone]
CYP2D6 [1]
  type of inhibition: Competitive
  Ki: 37.5 µM
CYP2D6 [1]; listed as lurasidone
  type of inhibition: competitive
CYP2C19 [2]
  type of inhibition: Mixed
  Ki: 18 µM
CYP2C19 [2]; listed as lurasidone
  type of inhibition: mixed
CYP3A4 [3]
  Ki: 9.1 µM
  type of inhibition: competitive
CYP3A4 [3]; human, 30 min, pH 7.4
  type of inhibition: Competitive
CYP2C9 [4]; CYP2C9, supersomes
  type of inhibition: Mixed
CYP2C9 [4]; CYP2C9, supersomes, listed as lurasidone
  type of inhibition: mixed
CYP2C9 [4]; CYP2C9, supersomes, diclofenac 4′-hydroxylation
  Ki: 3.5 µM
[5]
  log P: 5.6
CYP1A2 [6]
  type of inhibition: Mixed
  Ki: 15.5 µM
CYP1A2 [6]; listed as lurasidone
  type of inhibition: mixed
CYP1A2 [7]
  type of inhibition: Mixed
  Ki: 12.6 µM
CYP1A2 [7]; listed as lurasidone
  type of inhibition: mixed
CYP2C19 [8]
  type of inhibition: Mixed
  Ki: 18.4 µM
CYP2C19 [8]; listed as lurasidone
  type of inhibition: mixed
[9]
  therapeutic plasma concentration: ≤ 1.2 µM
CYP2C9 [10]; CYP2C9, liver microsomes
  type of inhibition: Mixed
CYP2C9 [10]; CYP2C9, liver microsomes, listed as lurasidone
  type of inhibition: mixed
CYP2C9 [10]; CYP2C9, liver microsomes, diclofenac 4′-hydroxylation
  Ki: 18 µM
CYP2D6 [11]
  type of inhibition: Competitive
  Ki: 85 µM
CYP2D6 [11]; listed as lurasidone
  type of inhibition: competitive
CYP3A4 [12]
  Ki: 29.4 µM
  type of inhibition: competitive
CYP3A4 [12]; human, 20 min, pH 7.4
  type of inhibition: Competitive
